US20160083397A1, “PARTHENOLIDE DERIVATIVES AND THEIR MODULATION OF PROCESSES CONTROLLED BY REGULATED TRANSLATION” (THE BOARD OF TRUSTEES OF THE UNIVERSITY OF ARKANSAS, priority 2013, published 2016)
Several values for one entry are separate records, joined by “and”; a condition that tells them apart may be missing. Equal entries are not always repeated.

Tests used:
[1] = test system: CCRF-CEM; details: for GI50: CCRF-CEM, Leukemia
[2] = test system: Xenopus oocytes; test: Xenopus oocyte maturation assay; format: cell-based; details: for Xenopus Oocyte Maturation Assay, Without Progesterone: no progesterone, activator = able to induce GVBD in the absence of added progesterone; for Xenopus Oocyte Maturation Assay, With Progesterone: test compound 100 μM, progesterone 2 μg/mL, inhibitor = slowed rate of progesterone-dependent GVBD by 20% or more
Excerpt: An in vivo Xenopus oocyte maturation assay was used to screen the compounds for their ability to modulate the activity of cell cycle control proteins, mRNA translational control proteins, and/or proteins involved in signaling pathways. In this assay, oocyte maturation (or cell cycle progression) is monitored phenotypically using an image capture system. Oocyte maturation is correlated with the appearance of a white spot at the animal pole of the darkly pigmented animal hemisphere of the oocyte. The white spot appears because the germinal vesicle (i.e., the large nucleus of the oocyte) migrates to the animal pole prior to meiotic germinal vesicle breakdown (GVBD).
Immature stage VI Xenopus oocytes were transferred to wells of a flat bottom 96-well plate containing about 178 μL of L15 culture media. The oocytes were transferred using wide mouth 200 μL pipette tips with minimal transfer of culture medium (e.g., about 20 μL). Generally, the oocytes oriented with the pigmented animal hemisphere facing up due to the higher density of the yolk-containing vegetal hemisphere. Incorrectly orientated oocytes were gently manipulated using a drawn-out capillary tube to rotate them into the correct orientation.
Forty-four test compounds were dissolved in DMSO to make 100× stock solutions. The test compounds were added to the appropriate wells at a final concentration of 100 μM (and 1% DMSO). Control oocytes were exposed to 1% DMSO only (generally the first and last wells of a plate contained the untreated, control oocytes). Sixteen hours later, progesterone was added to each well to stimulate progesterone-dependent oocyte maturation. For this, 2 μL of 1000× stock solution (2 mg/mL in ethanol) was added to the appropriate wells to yield a final concentration of 2 μg/mL. The rate of maturation in the control oocytes (i.e., those in the first and last wells) served as an intra-assay control for time taken for progesterone addition across the multi-well plate.
The 96-well plate was imaged from above (i.e., top-down) using a 36-megapixel Nikon D800 SLR camera with an AF Micro Nikkor 60 mm, f/2.8 lens, mounted on a dedicated copy stand (with adjustable flanking light sources). The plate was imaged prior to and after addition of progesterone (i.e., images were taken at regular intervals over a period of 7 hours). The high resolution images were digitally zoomed after capture to analyze the maturation status of oocytes in individual wells of the plate. Test compounds that slowed the rate of progesterone-dependent GVBD by 20% or more were classified as inhibitors (assessed relative to the time 50% of the population of control, vehicle treated oocytes had undergone GVBD (GVBD50)).
To determine whether the test compounds were able to activate oocyte maturation in a progesterone-independent manner, oocytes were incubated in the presence of the test compound (dissolved in DMSO) or DMSO only. The oocytes were imaged at regular intervals for the evidence of GVBD, or subsets of oocytes were removed at predetermined times and the activation status of key cell cycle control proteins (e.g., pMAP kinase, pCcd2, etc.) was analyzed by Western blotting. For example, activation of pMAP kinase is associated with increased phosphorylation whereas activation of pCdc2 is associated with decreased phosphorylation. Compounds were classified as an activator if they were able to induce GVBD in the absence of added progesterone. Further, compounds were classified as accelerators if they accelerated the rate of progesterone-stimulated GVBD, but were unable to induce GVBD in the absence of progesterone. The criteria for test compounds to be considered accelerators is that they must increase the rate of progesterone-dependent GVBD by 20% or more at one dose (assessed relative to the time 50% of the population of control, vehicle treated oocytes had undergone GVBD (GVBD50)).

[3] = test system: K-562; details: for GI50: K-562, Leukemia
[4] = test system: SK-MEL-2; test: NCI 60-cell line five dose screen: SK-MEL-2; details: SK-MEL-2, Melanoma
[5] = test system: MALME-3M; details: for GI50: MALME-3M, Melanoma
[6] = test system: NCI-H522; details: for GI50: NCI-H522, Lung Cancer
[7] = test system: HCC-2998; test: NCI 60-cell line five dose screen: HCC-2998; details: HCC-2998, Colon Cancer
[8] = test system: ACHN
[9] = test system: UACC-62
[10] = test system: RXF 393; test: NCI 60-cell line five dose screen: RXF 393; details: RXF 393, Renal Cancer
[11] = test system: TK-10; test: NCI 60-cell line five dose screen: TK-10; details: TK-10, Renal Cancer

Question: How did the CC50 [1] turn out when “13-(2-iodoimidazole)parthenolide [PNR-5-65]” was run?
Answer: The CC50 was 79.6 µM.

Question: What about the GI50 [1] of the same substance?
Answer: The GI50 was 6.13 µM.

Question: And the “Xenopus Oocyte Maturation Assay, Without Progesterone” value [2]?
Answer: The value was “Not an activator or inhibitor”.

Question: And the “Xenopus Oocyte Maturation Assay, With Progesterone” value [2]?
Answer: Its value is “Not an activator or inhibitor”.

Question: And the CC50 [3]?
Answer: The CC50 was 90 µM.

Question: What about the GI50 [3] of the same substance?
Answer: The GI50 was 7.36 µM.

Question: And the GI50 [4]?
Answer: The GI50 was 18.6 µM.

Question: What about the CC50 ([4]; read-out: LC50) of the same substance?
Answer: The CC50 was 66.1 µM.

Question: What about the CC50 [5] of the same substance?
Answer: The CC50 was 62.7 µM.

Question: What about the GI50 [5] of the same substance?
Answer: The GI50 was 10.9 µM.

Question: And the CC50 [6]?
Answer: The CC50 was 6.34 µM.

Question: What about the GI50 [6] of the same substance?
Answer: The GI50 was 1770 nM and 1710 nM.

Question: With “(E)-13-(3-thiopheno)parthenolide [PNR-5-53]” as the substance, how does the GI50 [7] read?
Answer: The GI50 was 33.8 µM.

Question: And the CC50 ([7]; read-out: LC50)?
Answer: Its CC50 is > 100 µM.

Question: What about the CC50 [8] of the same substance?
Answer: Its CC50 is > 100 µM.

Question: And the CC50 [9]?
Answer: The CC50 was 76.6 µM.

Question: What about the GI50 ([9]; UACC-62, Melanoma) of the same substance?
Answer: The GI50 was 13.8 µM.

Question: And the CC50 [1]?
Answer: Its CC50 is > 100 µM.

Question: And the GI50 [1]?
Answer: Its GI50 is 19.1 µM.

Question: What about the “Xenopus Oocyte Maturation Assay, Without Progesterone” value [2] of the same substance?
Answer: The value was “Not an activator or inhibitor”.

Question: What about the “Xenopus Oocyte Maturation Assay, With Progesterone” value [2] of the same substance?
Answer: Its value is “Not an activator or inhibitor”.

Question: What about the GI50 [10] of the same substance?
Answer: The GI50 was 18.1 µM.

Question: And the CC50 ([10]; read-out: LC50)?
Answer: The CC50 was > 100 µM.

Question: And the GI50 [11]?
Answer: Its GI50 is 34.7 µM.

Question: And the CC50 ([11]; read-out: LC50)?
Answer: The CC50 was > 100 µM.

Question: What about the CC50 [3] of the same substance?
Answer: The CC50 was > 100 µM.

Question: And the GI50 [3]?
Answer: The GI50 was 25.2 µM.

Question: What about the CC50 [5] of the same substance?
Answer: Its CC50 is > 100 µM.

Question: And the GI50 [5]?
Answer: The GI50 was 22.5 µM.

Question: What about the CC50 [6] of the same substance?
Answer: The CC50 was 59.7 µM.

Question: What about the GI50 [6] of the same substance?
Answer: Its GI50 is 5440 nM.
